# Results: patent US8324188B2, “Combinations of ET-18-O-CH3and anti-cancer agents for the treatment of cancer” (priority 2006, dated 2012)
# System: LNCaP androgen-sensitive human prostate adenocarcinoma cells
# Assay: Apo-ONE Homogenous Caspase-3/7 Assay in LNCaP cells
# Type: cell-based
# Method: FIG. 1. Depicts the in vitro effects of 1-O-octadecyl-2-O-methyl-glycero-3-phosphocholine (final concentration 10 μM), (ionizing) radiation (absorbed dose of 5 Gray units; indicated as “RT”), and a combination thereof on programmed cell death (apoptosis) and the survival rate of LNCaP androgen-sensitive human prostate adenocarcinoma cells. Apoptosis was determined using the Apo-ONE™ Homogenous Caspase-317 Assay, Promega, Inc., Madison, Wis., USA according to the manufacturers instructions. The percentage of living cancer cells was estimated by means of trypan blue dye exclusion as described (Freshney, R. I. (1994) Culture of Animal Cells: A Manual of Basic Technique. 3rd Ed. Wiley-Liss. New York. USA). The cells were exposed to radiation six hours after (FIG. 1A), concomitantly with (FIG. 1B), or six hours before administration of 1-O-octadecyl-2-O-methyl-glycero-3-phospho-choline (FIG. 1C). The caspase assay was performed 12 hours after exposure to radiation. The respective data shown represent the average of two independent experiments.
# First, the in vitro effects of 1-O-octadecyl-2-O-methyl-glycero-3-phosphocholine, (ionizing) radiation, and a combination thereof on programmed cell death (apoptosis) and the survival rate of LNCaP androgen-sensitive human prostate adenocarcinoma cells were measured. The LNCaP cell line was established from a metastatic lesion of the adenocarcinoma. The cells were treated with a final concentration of 10 μM 1-O-octadecyl-2-O-methyl-glycero-3-phosphocholine and (ionizing) radiation corresponding to an absorbed dose of 5 Gray units.
# Apoptosis was determined using the Apo-ONE™ Homogenous Caspase-3/7 Assay, Promega, Inc., Madison, VV1, USA according to the manufacturers instructions. The percentage of living tumor cells was estimated by means of trypan blue dye exclusion as described (Freshney, R. I. (1994) Culture of Animal Cells: A Manual of Basic Technique. 3rd Ed. Wiley-Liss. New York. USA)
# The cells were exposed to radiation six hours after (FIG. 1A), concomitantly with (FIG. 1B), or six hours before administration of 1-O-octadecyl-2-O-methyl-glycero-3-phospho-choline (FIG. 1C). The caspase assay was performed 12 hours after exposure to radiation. The respective data shown represent the average of two independent experiments.
# In a further approach, 10 μM 1-O-octadecyl-2-O-methyl-glycero-3-phosphocholine (final concentration; “CHEM”) and (ionizing) radiation (5 Gray units; “RT”) were administered simultaneously to the LNCaP cells but the subsequent incubation period was extended to 24 hours. Apoptosis was measured using the Apo-ONE™ Homogenous Caspase-3/7 Assay as described above and expressed as relative fluorescence units (RFLU). The percentage of apoptotic cells was determined by flow cytometric analysis of annexin V-PE positive-stained and 7-AAD (7-Amino ActinomycinD) negative-stained cells (both purchased from BD Biosciences, San Jose, Calif., USA) according to established standard protocols. The data represent means±SEM from three independent experiments.
# Apoptosis was measured using the Apo-ONE™ Homogenous Caspase-3/7 Assay as described above and expressed as relative fluorescence units (RFLU). The percentage of apoptotic cells was determined via annexin V-PE/7-AAD staining as described above. The caspase-317 assay and annexin staining were performed 22 hours after CHEM treatment.
smiles,measurement,setting,value
"CCCCCCCCCCCCCCCCCCOCC(COP(=O)([O-])OCC[N+](C)(C)C)OC (racemic) [AP-121, 1-O-octadecyl-2-O-methyl-glycero-3-phosphocholine]",increase in apoptotic response (caspase-3/7 assay),"10 μM administered six hours prior to radiation (5 Gray), combined treatment (FIG. 1A)",> 2.5 fold
same,"extent of apoptosis, increase in cells only exposed to the chemical as compared to the combined treatment","10 μM, radiation six hours before (FIG. 1C)",about 25%
same,Caspase-3/7 activity (RFLU),"AD (androgen deprivation, two days) + 5 μM CHEM, AD alone 81",126 RFLU
same,Caspase-3/7 activity (RFLU),AD + 10 μM CHEM,115 RFLU
same,Caspase-3/7 activity (RFLU),AD + R1881 (two days prior) + 5 μM CHEM,453 RFLU
same,Caspase-3/7 activity (RFLU),AD + R1881 (two days prior) + 10 μM CHEM,962 RFLU
same,Caspase-3/7 activity (RFLU),"CHEM 10 μM + RT 5 Gray simultaneously, 24 hours, means±SEM, p < 0.0001 vs CHEM and RT",1514 ± 102 RFLU
same,Caspase-3/7 activity (RFLU),"CHEM 10 μM alone, 24 hours, means±SEM, three experiments, Control 193 ± 39",580 ± 207 RFLU
same,Caspase-3/7 activity (RFLU),"Contr. + 5 μM CHEM, 22 hours after CHEM, Contr. 235",380 RFLU
same,Caspase-3/7 activity (RFLU),"Contr. + 10 μM CHEM, 22 hours after CHEM",436 RFLU
